The subject of this assay is human antibody to the nicotinic acetylcholine receptor. Put plainly: Adsorption of human anti-nicotinic acetylcholine receptor antibody from myasthenia gravis patient serum; residual antibody in supernatant by Con A method (toxin binding inhibition).

The structures appear in SMILES notation.

Procedure: In 0.5 ml of serum from a patient of myasthenia gravis, 50 mg of the adsorbent obtained in Referential Example 3(a) (cellulose particles having the peptide immobilized thereon) and not yet subjected to any heat treatment or the adsorbent obtained in Referential Example 3(b) and subjected to a heat treatment was suspended at a temperature of 37° C. for three hours. The resultant suspension was centrifuged to separate a supernatant. The supernatant was tested for the concentration of the human antibody to the nicotinic acetylcholine receptor by the Con A method [Protein, Nucleic Acid and Enzyme, vol. […] To be specific, the specimen was brought into contact sequentially with the nicotinic acetylcholine receptor and a radioisotope-labelled α-bungartoxin. The treated specimen was passed through a column packed with Sepharose having immobilized thereon concanavalin (Con A). By measuring the radioactivity of the column, the amount of the human antibody which was contained in the specimen and which inhibited the union of the α-bungarotoxin with the nicotinic acetylcholine receptor was determined in terms of toxin binding inhibition activity (ratio of decrease of the radioactivity of the column).

Take `NCC(=O)O` [Glycine, glycine]: the “Toxine binding inhibition activity” value (as E1, adsorbent heat treated at 121° C. for 20 minutes) came out at 45% and the “Toxine binding inhibition activity” value (supernatant of 0.5 ml myasthenia gravis serum after 50 mg adsorbent (substance immobilized on cellulose particles), 37° C., three hours, no heat treatment, lower = more antibody adsorbed) was determined as 44%.
